For 21 compounds, IC50 results are on record in patent EP4806891A1 (Kangbaida (Sichuan) Biotechnology Co., Ltd., priority 2023, dated 2025).

This experiment has as its target T1, HEK-Blue-hTLR8 cells (Homo sapiens, UniProt Q9NR97).
T1 construct: expressed in transfected cells; host or cells: HEK-Blue-hTLR8 cells (HEK293-derived reporter line)
T1 sequence (Q9NR97 27-1041): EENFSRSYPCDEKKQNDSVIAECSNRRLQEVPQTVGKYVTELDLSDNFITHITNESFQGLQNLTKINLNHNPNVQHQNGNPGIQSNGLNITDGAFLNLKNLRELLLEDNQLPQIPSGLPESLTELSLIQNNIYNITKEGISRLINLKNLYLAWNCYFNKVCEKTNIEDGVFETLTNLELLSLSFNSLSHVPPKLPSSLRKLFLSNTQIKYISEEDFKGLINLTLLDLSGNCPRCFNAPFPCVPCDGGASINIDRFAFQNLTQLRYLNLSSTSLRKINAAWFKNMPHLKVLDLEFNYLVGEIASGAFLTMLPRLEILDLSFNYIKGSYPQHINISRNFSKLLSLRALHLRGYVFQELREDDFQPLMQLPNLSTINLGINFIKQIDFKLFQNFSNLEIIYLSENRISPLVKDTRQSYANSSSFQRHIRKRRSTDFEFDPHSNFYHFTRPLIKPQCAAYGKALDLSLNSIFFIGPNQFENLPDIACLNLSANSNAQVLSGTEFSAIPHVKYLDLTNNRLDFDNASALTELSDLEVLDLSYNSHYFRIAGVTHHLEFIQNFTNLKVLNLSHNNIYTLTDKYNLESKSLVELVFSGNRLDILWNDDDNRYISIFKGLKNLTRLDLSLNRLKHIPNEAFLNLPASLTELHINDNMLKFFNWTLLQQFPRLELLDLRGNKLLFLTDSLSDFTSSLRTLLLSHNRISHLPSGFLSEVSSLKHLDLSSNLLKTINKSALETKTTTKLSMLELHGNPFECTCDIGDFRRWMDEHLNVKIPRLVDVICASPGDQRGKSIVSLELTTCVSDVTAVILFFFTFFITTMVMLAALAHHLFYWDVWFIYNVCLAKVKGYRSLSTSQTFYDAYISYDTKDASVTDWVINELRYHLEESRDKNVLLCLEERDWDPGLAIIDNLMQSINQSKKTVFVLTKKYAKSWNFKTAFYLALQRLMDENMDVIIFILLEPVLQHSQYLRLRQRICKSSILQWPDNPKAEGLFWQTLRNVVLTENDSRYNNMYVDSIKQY
Kind of experiment: HEK-Blue-hTLR8 cell inhibition assay. It is filed as cell-based. Particulars: R848 3 µM, 16 h, OD 620 nm, read-out: TLR8 IC50. The gist of the method: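 Cells were pre-incubated 4 h, then co-treated 16 h at 37 °C with compound (10 doses, 0.5–10000 nM final) plus R848 (0.8 µM for TLR7, 3 µM for TLR8) or ODN2006 (1 µM, TLR9). Reporter OD620 gave inhibition relative to DMSO blank and agonist-only controls; IC50 came from curve fitting.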

`N#Cc1ccc(N2C[C@]3(c4nnc(C5(F)CCNC5)o4)C[C@]3(C(F)(F)F)C2)c2cccnc12` (stereo partly drawn) [Compound 46, 5-((1S,5R)-1-(5-(3-fluoropyrrolidin-3-yl)-1,3,4-oxadiazol-2-yl)-5-(trifluoromethyl)-3-azabicyclo[3.1.0]hexan-3-yl)quinoline-8-carbonitrile]: the IC50 is < 100 nM. For `CN1CCC(F)(c2nnc([C@]34CN(c5ccc(C#N)c6ncccc56)C[C@@]3(C(F)(F)F)C4)o2)C1` (stereo partly drawn) [Compound 47, 5-((1S,5R)-1-(5-(3-fluoro-1-methylpyrrolidin-3-yl)-1,3,4-oxadiazol-2-yl)-5-(trifluoromethyl)-3-azabicyclo[3.1.0]hexan-3-yl)quinoline-8-carbonitrile], the IC50 is < 100 nM. On to `CN1CC(F)(c2nnc([C@]34CN(c5ccc(C#N)c6ncccc56)C[C@@]3(C(F)(F)F)C4)o2)C1` [Compound 49, 5-((1S,5R)-1-(5-(3-fluoro-1-methylazetidin-3-yl)-1,3,4-oxadiazol-2-yl)-5-(trifluoromethyl)-3-azabicyclo[3.1.0]hexan-3-yl)quinoline-8-carbonitrile], for which the half-inhibitory concentration (IC50) was < 100 nM. Consider `CN1CCC(c2nnc([C@]34CN(c5ccc(C#N)c6ncccc56)C[C@@]3(C(F)(F)F)C4)o2)C(F)C1` (stereo partly drawn) [Compound 50, 5-((1S,5R)-1-(5-(3-fluoro-1-methylpiperidin-4-yl)-1,3,4-oxadiazol-2-yl)-5-(trifluoromethyl)-3-azabicyclo[3.1.0]hexan-3-yl)quinoline-8-carbonitrile], for which the IC50 was < 100 nM. In the case of `CN(C)CCc1nnc([C@]23CN(c4ccc(C#N)c5ncccc45)C[C@@]2(C(F)(F)F)C3)o1` [Compound 51, 5-((1S,5R)-1-(5-(2-(dimethylamino)ethyl)-1,3,4-oxadiazol-2-yl)-5-(trifluoromethyl)-3-azabicyclo[3.1.0]hexan-3-yl)quinoline-8-carbonitrile] it was < 100 nM; in that of `N#Cc1ccc(N2C[C@]3(c4nnc(C56CCC(N)(CC5)CC6)o4)C[C@]3(C(F)(F)F)C2)c2cccnc12` [Compound 52, 5-((1S,5R)-1-(5-(4-aminobicyclo[2.2.2]octan-1-yl)-1,3,4-oxadiazol-2-yl)-5-(trifluoromethyl)-3-azabicyclo[3.1.0]hexan-3-yl)quinoline-8-carbonitrile], < 100 nM; in that of `CN(C)C12CCC(c3nnc([C@]45CN(c6ccc(C#N)c7ncccc67)C[C@@]4(C(F)(F)F)C5)o3)(CC1)CC2` [Compound 53, 5-((1S,5R)-1-(5-(4-(dimethylamino)bicyclo[2.2.2]octan-1-yl)-1,3,4-oxadiazol-2-yl)-5-(trifluoromethyl)-3-azabicyclo[3.1.0]hexan-3-yl)quinoline-8-carbonitrile], < 100 nM. For `N#Cc1ccc(N2C[C@]3(c4nnc(C56CCC(NC(=O)[C@@H]7COCCN7)(CC5)CC6)o4)C[C@]3(C(F)(F)F)C2)c2cccnc12` [Compound 54, (S)-N-(4-(5-((1S,5R)-3-(8-cyanoquinolin-5-yl)-5-(trifluoromethyl)-3-azabicyclo[3.1.0]hexan-1-yl)-1,3,4-oxadiazol-2-yl)bicyclo[2.2.2]octan-1-yl)morpholine-3-carboxamide], the IC50 was < 100 nM. In the case of `N#Cc1ccc(N2C[C@]3(c4nnc([C@H]5CN(CC(N)=O)CCO5)o4)C[C@]3(C(F)(F)F)C2)c2cccnc12` [Compound 56, 2-((R)-2-(5-((1S,5R)-3-(8-cyanoquinolin-5-yl)-5-(trifluoromethyl)-3-azabicyclo[3.1.0]hexan-1-yl)-1,3,4-oxadiazol-2-yl)morpholino)acetamide] it was < 100 nM.

With `CN1CCC(c2nnc([C@]34CN(c5ccc(C#N)n6ncc(F)c56)C[C@@]3(C(F)(F)F)C4)o2)CC1` [Compound 57, 3-fluoro-4-((1S,5R)-1-(5-(1-methylpiperidin-4-yl)-1,3,4-oxadiazol-2-yl)-5-(trifluoromethyl)-3-azabicyclo[3.1.0]hexan-3-yl)pyrazolo[1,5-a]pyridine-7-carbonitrile], the IC50 was < 100 nM.

On to `CN1CCC(c2nnc([C@]34CN(c5ccc(C#N)n6nccc56)C[C@@]3(C(F)(F)F)C4)o2)CC1` [Compound 59, 4-((1S,5R)-1-(5-(1-methylpiperidin-4-yl)-1,3,4-oxadiazol-2-yl)-5-(trifluoromethyl)-3-azabicyclo[3.1.0]hexan-3-yl)pyrazolo[1,5-a]pyridine-7-carbonitrile], for which the IC50 was < 1000 nM. In the case of `N#Cc1ccc(N2C[C@]3(c4nnc(C5(F)CCNCC5)o4)C[C@]3(C(F)(F)F)C2)c2cccnc12` [Compound 60, 5-((1S,5R)-1-(5-(4-fluoropiperidin-4-yl)-1,3,4-oxadiazol-2-yl)-5-(trifluoromethyl)-3-azabicyclo[3.1.0]hexan-3-yl)quinoline-8-carbonitrile] it was < 100 nM. Take `CN1CCC(c2nnc([C@]34CN(c5ccc(OC(F)(F)F)c6ncccc56)C[C@@]3(C(F)(F)F)C4)o2)CC1` [Compound 64, 2-(1-methylpiperidin-4-yl)-5-((1S,5R)-5-(trifluoromethyl)-3-(8-(trifluoromethoxy)quinolin-5-yl)-3-azabicyclo[3.1.0]hexan-1-yl)-1,3,4-oxadiazole]: the IC50 is < 100 nM. As to `COc1ccc(N2C[C@]3(c4nnc(C5CCN(C)CC5)o4)C[C@]3(C(F)(F)F)C2)c2cccnc12` [Compound 66, 2-((1S,5R)-3-(8-methoxyquinolin-5-yl)-5-(trifluoromethyl)-3-azabicyclo[3.1.0]hexan-1-yl)-5-(1-methylpiperidin-4-yl)-1,3,4-oxadiazole], the half-inhibitory concentration (IC50) was < 100 nM. For `CN1CCC(n2cc([C@]34CN(c5ccc(C#N)c6ncccc56)C[C@@]3(C(F)(F)F)C4)nn2)CC1` [Compound 71, 5-((1S,5R)-1-(1-(1-methylpiperidin-4-yl)-1H-1,2,3-triazol-4-yl)-5-(trifluoromethyl)-3-azabicyclo[3.1.0]hexan-3-yl)quinoline-8-carbonitrile], the IC50 is < 100 nM. In the case of `FC(F)(F)c1ccc(N2C[C@]3(c4nnc(C5CCNCC5)o4)C[C@]3(C(F)(F)F)C2)c2cccnc12` [Compound 75, 2-(piperidin-4-yl)-5-((1S,5R)-5-(trifluoromethyl)-3-(8-(trifluoromethyl)quinolin-5-yl)-3-azabicyclo[3.1.0]hexan-1-yl)-1,3,4-oxadiazole] it was < 100 nM; in that of `FC(F)(F)c1ccc(N2C[C@]3(c4nnc(C5CCN(CC6CC6)CC5)o4)C[C@]3(C(F)(F)F)C2)c2cccnc12` [Compound 76, 2-(1-(cyclopropylmethyl)piperidin-4-yl)-5-((1S,5R)-5-(trifluoromethyl)-3-(8-(trifluoromethyl)quinolin-5-yl)-3-azabicyclo[3.1.0]hexan-1-yl)-1,3,4-oxadiazole], < 100 nM. In the case of `NC(=O)CN1CCC(c2nnc([C@]34CN(c5ccc(C(F)(F)F)c6ncccc56)C[C@@]3(C(F)(F)F)C4)o2)CC1` [Compound 77, 2-(4-(5-((1S,5R)-5-(trifluoromethyl)-3-(8-(trifluoromethyl)quinolin-5-yl)-3-azabicyclo[3.1.0]hexan-1-yl)-1,3,4-oxadiazol-2-yl)piperidin-1-yl)acetamide] it was < 100 nM.

Turning to `CN1[C@@H]2CC[C@H]1C[C@H](c1nnc([C@]34CN(c5ccc(C(F)(F)F)c6ncccc56)C[C@@]3(C(F)(F)F)C4)o1)C2` [Compound 79, 2-((1R,3S,5S)-8-methyl-8-azabicyclo[3.2.1]octan-3-yl)-5-((1S,5R)-5-(trifluoromethyl)-3-(8-(trifluoromethyl)quinolin-5-yl)-3-azabicyclo[3.1.0]hexan-1-yl)-1,3,4-oxadiazole], the IC50 is < 100 nM. In the case of `N#Cc1ccc(N2C[C@]3(c4nnc(C5CCNCC5)o4)C[C@]3(C(F)(F)F)C2)c2c(F)cnn12` [Compound 80, 3-fluoro-4-((1S,5R)-1-(5-(piperidin-4-yl)-1,3,4-oxadiazol-2-yl)-5-(trifluoromethyl)-3-azabicyclo[3.1.0]hexan-3-yl)pyrazolo[1,5-a]pyridine-7-carbonitrile] it was < 100 nM.

Turning to `NC12CCC(c3nnc([C@]45CN(c6ccc(C(F)(F)F)c7ncccc67)C[C@@]4(C(F)(F)F)C5)o3)(CC1)CC2` [Compound 81, 4-(5-((1S,5R)-5-(trifluoromethyl)-3-(8-(trifluoromethyl)quinolin-5-yl)-3-azabicyclo[3.1.0]hexan-1-yl)-1,3,4-oxadiazol-2-yl)bicyclo[2.2.2]octan-1-amine], the IC50 is < 100 nM.
